Test results from US20050032863A1, “Method of treating or preventing central nervous system disorders with compounds having selectivity for the alpha 3 subunit of the benzodiazepine receptor” (priority 2003, published 2005).
Where “and” joins values, the source holds several entries; their conditions need not be identical. Equal values may be shown once. Entries after “also recorded” stand apart in the source; their conditions may differ.

Legend:
[1] = biological target: T1, recombinant rat α1β2γ2 GABAA receptors (Rattus norvegicus, UniProt P62813); assay: Whole-cell patch-clamp, modulation of GABA (EC20)-induced currents in transfected HEK 293 cells, α1β2γ2; type: cell-based
T1 construct: expressed in transfected cells; host or cells: HEK 293
T1 sequence (P62813 28-455): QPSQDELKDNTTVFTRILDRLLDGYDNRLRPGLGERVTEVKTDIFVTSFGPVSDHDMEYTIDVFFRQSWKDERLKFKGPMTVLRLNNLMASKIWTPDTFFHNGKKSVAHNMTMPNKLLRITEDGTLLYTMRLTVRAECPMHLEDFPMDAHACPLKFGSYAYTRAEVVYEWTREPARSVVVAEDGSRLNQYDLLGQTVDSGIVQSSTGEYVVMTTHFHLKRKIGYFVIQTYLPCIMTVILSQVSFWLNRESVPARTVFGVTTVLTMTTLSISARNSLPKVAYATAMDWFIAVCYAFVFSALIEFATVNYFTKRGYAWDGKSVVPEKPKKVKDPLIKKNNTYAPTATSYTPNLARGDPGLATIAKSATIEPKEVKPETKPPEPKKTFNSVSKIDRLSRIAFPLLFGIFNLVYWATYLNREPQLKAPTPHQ
Experimental: (§1) For electrophysiological recording HEK-293 cells were passaged and replated on 12-mm glass coverslips located in 9.6-cm plastic dishes filled with 10 ml of Minimum Essential Medium (MEM, Gibco) supplemented with 158 mg/l sodium bicarbonate, 2 mM glutamine (Gibco), 100 U/ml penicillin-streptomycin (Gibco), and 10% foetal calf serum (Gibco). Cultures were maintained at 37° C. in a humidified […]/5% CO2 atmosphere for 2-3 days.
(§2) Transfection with recombinant rat GABAA receptors was carried out as described in detail (Korpi and Lüddens, 1993, Lüddens and Korpi, 1995b). Briefly, HEK 293 cells were transfected in triple combinations using the phosphate precipitation method with rat GABAA receptor cDNAs in eukaryotic expression vectors (Pritchett, 1990) for the α, β and γ subunits. For optimal receptor expression, final concentrations (μg vector DNA per 9.6 cm tissue culture plate) were: α1, 2; α2 4.8; α3, 1.2; α4, 10; α5, 0.8; β2, 0.4; and γ2S, 0.3. The γ2S variant is abbreviated γ2 in the remainder of the text. To identify transfected cells all subunit combinations were co-transfected with 1 μg per plate of pNI-EGFP.
(§3) Two days after transfection single coverslips containing HEK 293 cells were placed in a recording chamber mounted on the movable stage of a fluorescence microscope (Olympus IX70) and perfused with a defined saline solution containing (in mM): 130 NaCl, 5.4 KCl, 2 CaCl2, 2 MgSO4, 10 glucose, 5 sucrose, and 10 HEPES (free acid), pH adjusted to 7.35 with about 35 mM NaOH. Transfected cells were identified by their green fluorescence due to the expression of the pNI-EGFP vector and ligand-mediated membrane currents of these cells were studied in the whole-cell configuration of the patch-clamp technique (Hamil et al., 1981). Patch-clamp pipettes were pulled from hard borosilicate capillary glass (0.5 mm ID, 1.5 mm OD, Vitrex, Science Products GmbH, Hofheim, Germany) using a horizontal puller (Sutter Instruments, CA, Model P-97) in a multi-stage process.
Seal resistances >1 GΩ were routinely obtained by applying gentle suction to the pipettes. Membrane rupture was monitored electrically as an increase in capacity. Pipette capacitance, membrane capacitance, and series resistance were electronically compensated to achieve minimal capacitative transients. A series resistance compensation of >60% was regularly used.
In all cells recorded the presence of the γ2 subunit in the heteropentamere was monitored by the application of 1 μM zolpidem plus the EC20 of GABA before testing the experimental drugs.
Responses of the cells were recorded by a patch-clamp amplifier (EPC-8, HEKA-Electronic, Lambrecht, Germany) in conjunction with a standard personal computer and the pClamp 8.1 software package (Axon Instruments, Foster City, Calif.). The standard holding-potential for the cells was −40 mV. Whole cell currents were low-pass filtered by an eight-pole Bessel filter at 5 or 3 kHz before being digitised by a Digidata 1322A interface (Axon Instruments, Foster City, Calif.) and recorded by the computer at a sampling rate of at least […].
Efficacy, potency, and GABAA receptor a subunit specificity of the new compound ELB139 was tested with the whole cell configuration of the patch-clamp technique by applying increasing drug concentration together with GABA of the approximate EC20 on green fluorescing cells. BZ binding site specificity of the new compound was tested on the same cells in an identical experimental setting with additionally applying 10 μM Ro15-1788.

[2] = biological target: T2, recombinant rat α4β2γ2 GABAA receptors (Rattus norvegicus, UniProt P28471); assay: Whole-cell patch-clamp, modulation of GABA (EC20)-induced currents in transfected HEK 293 cells, α4β2γ2; type: cell-based
T2 construct: expressed in transfected cells; host or cells: HEK 293
T2 sequence (P28471 36-552): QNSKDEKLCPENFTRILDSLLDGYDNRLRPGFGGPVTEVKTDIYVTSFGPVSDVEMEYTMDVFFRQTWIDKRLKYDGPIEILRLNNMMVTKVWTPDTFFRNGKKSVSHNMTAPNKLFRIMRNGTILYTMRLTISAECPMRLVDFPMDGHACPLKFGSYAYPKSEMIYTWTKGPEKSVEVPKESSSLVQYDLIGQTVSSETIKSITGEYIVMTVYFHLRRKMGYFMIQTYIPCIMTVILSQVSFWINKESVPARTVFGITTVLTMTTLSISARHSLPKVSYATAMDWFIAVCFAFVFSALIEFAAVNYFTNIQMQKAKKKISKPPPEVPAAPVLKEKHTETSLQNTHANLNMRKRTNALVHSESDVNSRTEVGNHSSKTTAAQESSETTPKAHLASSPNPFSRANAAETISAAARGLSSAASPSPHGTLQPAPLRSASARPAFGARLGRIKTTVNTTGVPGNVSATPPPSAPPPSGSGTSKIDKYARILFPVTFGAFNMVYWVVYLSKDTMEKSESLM
Experimental: as §1, §2
as §3, with “Patch-clamp pipettes were pulled from hard borosilicate capillary glass (0.5 mm ID, 1.5 mm OD, Vitrex, Science Products GmbH, Hofheim, Germany) using a horizontal puller (Sutter Instruments, CA, Model P-97) in a multi-stage process.” left out
Seal resistances >1 GΩ were routinely obtained by applying gentle suction to the pipettes. Membrane rupture was monitored electrically as an increase in capacity. […]
In all cells recorded the presence of the γ2 subunit in the heteropentamere was monitored by the application of 1 μM zolpidem plus the EC20 of GABA before testing the experimental drugs. […]

[3] = system: female Wistar rats, MK-801-induced stereotypies, hyperactivity and ataxia; assay: MK-801-induced behaviour, rat model of psychosis (Example 1); type: in vivo; settings: MK-801 0.2 mg/kg i.p.
Experimental: The behaviour induced by the NMDA antagonist MK-801 is generally accepted as a rat model of psychosis. MK-801 induces stereotypies, hyperactivity and ataxia in rats after intraperitoneal administration.
Locomotor activity of the rats is recorded by the MotiTest Apparatus (TSE, Bad Homburg, Germany). The test area consisted of a squared arena ([…] with protective plexiglass walls (20 cm of height) where rats could freely move. Horizontal movements were recorded by 32 infrared photocells arranged along the bottom of each wall of the arena. Vertical movements (rearings) were recorded by a horizontal row of 32 infrared photocells 12 cm above the floor. The following parameters are measured by the computer program “ActiMot” (TSE, Bad Homburg, Germany): • active time [s] and total distance travelled [m]
Stereotypies, divided into stereotyped sniffing and other stereotypies, and ataxia are scored by the experimenter every five minutes for one hour (12 intervals) according to the method described by Andiné et al. (1999). The scores of the 12 intervals are added for each parameter.
The day of experiment the female rats are placed in the laboratory and receive the test compound, the reference substance or vehicle at the appropriate time prior to test. MK-801 0.2 mg/kg is intraperitoneally administered 10 minutes prior to test.
At the beginning of the test the rats are placed in the centre of the squared arena of the MotiTest apparatus. Behaviour of the rats is recorded for one hour. After each run animals are removed and the boxes thoroughly cleaned and dried.

serotonine transporters = assay: Uptake of serotonine in a synaptosomal preparation; type: biochemical
[4] = 30 mg/kg p.o. 1 h prior to test

## O=C1N=C(N2CCCCC2)CN1c1ccc(Cl)cc1 [ELB139, 1-(4-chlorophenyl)-4-piperidinoimidazolin-2-one]
[1]; α1-containing receptors
  concentration at which positive current modulation was observable: 0.3 µM
[1]; α1-containing receptors, maximum at 30 μM (ELB139), at 1 μM (diazepam)
  maximal positive modulation of GABA-induced current: 1.6±0.08 fold and 1.6 fold
[1]; α1β2γ2
  concentration at which significant agonistic effects were noticeable: about 1 μM
[1]; α1β2γ2, applied with approximate GABA EC20, read-out: EC50 (ELB139)
  EC50: 3.8 µM
[1]; α1β2γ2, co-applied 10 μM Ro15-1788 (flumazenil)
  effect of 10 μM Ro15-1788 on the current enhancement by the compound: completely abolished
[1]; α1β2γ2, with GABA EC20, graphically determined
  Potentiation* (ELB139): 1.6 ± 0.08
[2]; α4-containing receptors, diazepam up to 1 μM, ELB139 at all concentrations tested
  modulation of GABA-induced currents (in words): unaffected; also recorded: not active
[2]; α4β2γ2, applied with approximate GABA EC20, read-out: EC50 (ELB139)
  EC50: > 30 µM
[3]; [4]
  MK-801-induced ataxia: significantly reversed
  MK-801-induced other stereotypies: significantly reversed
  MK-801-induced stereotyped sniffing: significantly reversed
  MK-801-stimulated activity: did not reduce
  total distance travelled increased by MK-801: distinctly reduced
[3]; 60 mg/kg p.o. 1 h prior to test
  all parameters induced by MK-801: significantly reduced all parameters
Serotonine transporters
  uptake of serotonine: no effect
